Reference: PubChem BioAssay (NCI)
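Dose response: 5 concentrations. Exposure: 48 h. Format: 96-well plates. Endpoint: linear interpolation; highest concentration if not reached. Abbreviation: GI50, concentration required for 50% inhibition of growth. TGI denotes the concentration required for complete inhibition of growth.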

Key:
Experiment in all cases: NCI tumour cell line growth inhibition, 48 h
[1] = test system: 786-0 renal
[2] = test system: A498 renal
[3] = test system: A549 NSCLC
[4] = test system: ACHN renal
[5] = test system: BT-549 breast
[6] = test system: COLO 205 colon
[7] = test system: EKVX NSCLC
[8] = test system: HCC-2998 colon
[9] = test system: HCT-116 colon
[10] = test system: HCT-15 colon
[11] = test system: HL-60(TB) leukemia
[12] = test system: HOP-62 NSCLC
[13] = test system: HS 578T breast
[14] = test system: HT29 colon
[15] = test system: IGROV1 ovarian
[16] = test system: K-562 leukemia
[17] = test system: KM12 colon
[18] = test system: LOX IMVI melanoma
[19] = test system: M14 melanoma
[20] = test system: MALME-3M melanoma
[21] = test system: MCF7 breast
[22] = test system: MDA-MB-231 breast
[23] = test system: MDA-MB-435
[24] = test system: MOLT-4 leukemia
[25] = test system: NCI-H23 lung
[26] = test system: NCI-H460 lung
[27] = test system: NCI-H522 lung
[28] = test system: NCI/ADR-RES ovarian
[29] = test system: OVCAR-3 ovarian
[30] = test system: OVCAR-5 ovarian
[31] = test system: OVCAR-8 ovarian
[32] = test system: PC-3 prostate
[33] = test system: RPMI-8226 leukemia
[34] = test system: SF-295 CNS
[35] = test system: SF-539 CNS
[36] = test system: SK-MEL-2 melanoma
[37] = test system: SK-MEL-28 melanoma
[38] = test system: SK-MEL-5 melanoma
[39] = test system: SN12C renal
[40] = test system: SNB-19 CNS
[41] = test system: SR leukemia
[42] = test system: SW-620 colon
[43] = test system: T-47D breast
[44] = test system: TK-10 renal
[45] = test system: U251 CNS
[46] = test system: UACC-257 melanoma
[47] = test system: UACC-62 melanoma
[48] = test system: UO-31 renal
[49] = test system: CAKI-1 renal
[50] = test system: CCRF-CEM leukemia
[51] = test system: DU-145 prostate
[52] = test system: HOP-92 NSCLC
[53] = test system: NCI-H226 lung
[54] = test system: RXF 393 renal
[55] = test system: SF-268 CNS
[56] = test system: SK-OV-3 ovarian
[57] = test system: SNB-75 CNS

O=C1C=CC(=O)c2c(NCC3CC3)ccc(NCC3CC3)c21
TGI [1]: > 100 µM
TGI [2]: > 100 µM
TGI [3]: > 100 µM
TGI [4]: > 100 µM
TGI [5]: > 100 µM
TGI [6]: 41.4 µM
TGI [7]: > 100 µM
TGI [8]: > 100 µM
TGI [9]: > 100 µM
TGI [10]: > 100 µM
TGI [11]: 31.8 µM
TGI [12]: > 100 µM
TGI [13]: > 100 µM
TGI [14]: 88.4 µM
TGI [15]: > 100 µM
TGI [16]: 53.9 µM
TGI [17]: > 100 µM
TGI [18]: 43 µM
TGI [19]: 56.8 µM
TGI [20]: 49.2 µM
TGI [21]: 48.6 µM
TGI [22]: > 100 µM
TGI [23]: 44.8 µM
TGI [24]: 44.9 µM
TGI [25]: 89.4 µM
TGI [26]: > 100 µM
TGI [27]: 15.9 µM
TGI [28]: > 100 µM
TGI [29]: 63.4 µM
TGI [30]: > 100 µM
TGI [31]: > 100 µM
TGI [32]: > 100 µM
TGI [33]: 47.4 µM
TGI [34]: 79.8 µM
TGI [35]: > 100 µM
TGI [36]: > 100 µM
TGI [37]: 99.1 µM
TGI [38]: 52 µM
TGI [39]: > 100 µM
TGI [40]: > 100 µM
TGI [41]: > 100 µM
TGI [42]: > 100 µM
TGI [43]: 65.6 µM
TGI [44]: > 100 µM
TGI [45]: > 100 µM
TGI [46]: 61.8 µM
TGI [47]: 65.3 µM
TGI [48]: > 100 µM

CC(C)C[C@H](NC(=O)[C@H]1O[C@@H]1C(=O)O)C(=O)NCCc1ccc(O)cc1
GI50 [1]: > 100 µM
TGI [1]: > 100 µM
GI50 [3]: > 100 µM
TGI [3]: > 100 µM
GI50 [4]: > 100 µM
TGI [4]: > 100 µM
GI50 [5]: > 100 µM
TGI [5]: > 100 µM
GI50 [49]: > 100 µM
TGI [49]: > 100 µM
GI50 [50]: > 100 µM
TGI [50]: > 100 µM
GI50 [6]: > 100 µM
TGI [6]: > 100 µM
GI50 [51]: > 100 µM
TGI [51]: > 100 µM
GI50 [7]: > 100 µM
TGI [7]: > 100 µM
GI50 [8]: > 100 µM
TGI [8]: > 100 µM
GI50 [9]: > 100 µM
TGI [9]: > 100 µM
GI50 [10]: > 100 µM
TGI [10]: > 100 µM
GI50 [12]: > 100 µM
TGI [12]: > 100 µM
GI50 [52]: > 100 µM
TGI [52]: > 100 µM
GI50 [13]: > 100 µM
TGI [13]: > 100 µM
GI50 [14]: > 100 µM
TGI [14]: > 100 µM
GI50 [15]: > 100 µM
TGI [15]: > 100 µM
GI50 [16]: > 100 µM
TGI [16]: > 100 µM
GI50 [17]: > 100 µM
TGI [17]: > 100 µM
GI50 [18]: 74.1 µM
TGI [18]: > 100 µM
GI50 [19]: > 100 µM
TGI [19]: > 100 µM
GI50 [20]: > 100 µM
TGI [20]: > 100 µM
GI50 [21]: > 100 µM
TGI [21]: > 100 µM
GI50 [22]: > 100 µM
TGI [22]: > 100 µM
GI50 [23]: > 100 µM
TGI [23]: > 100 µM
GI50 [24]: > 100 µM
TGI [24]: > 100 µM
GI50 [53]: > 100 µM
TGI [53]: > 100 µM
GI50 [25]: > 100 µM
TGI [25]: > 100 µM
GI50 [26]: > 100 µM
TGI [26]: > 100 µM
GI50 [27]: > 100 µM
TGI [27]: > 100 µM
GI50 [28]: > 100 µM
TGI [28]: > 100 µM
GI50 [29]: > 100 µM
TGI [29]: > 100 µM
GI50 [30]: > 100 µM
TGI [30]: > 100 µM
GI50 [31]: > 100 µM
TGI [31]: > 100 µM
GI50 [32]: > 100 µM
TGI [32]: > 100 µM
GI50 [33]: > 100 µM
TGI [33]: > 100 µM
GI50 [54]: > 100 µM
TGI [54]: > 100 µM
GI50 [55]: > 100 µM
TGI [55]: > 100 µM
GI50 [34]: > 100 µM
TGI [34]: > 100 µM
GI50 [35]: > 100 µM
TGI [35]: > 100 µM
GI50 [36]: > 100 µM
TGI [36]: > 100 µM
GI50 [37]: > 100 µM
TGI [37]: > 100 µM
GI50 [38]: > 100 µM
TGI [38]: > 100 µM
GI50 [56]: > 100 µM
TGI [56]: > 100 µM
GI50 [39]: > 100 µM
TGI [39]: > 100 µM
GI50 [40]: > 100 µM
TGI [40]: > 100 µM
GI50 [57]: > 100 µM
TGI [57]: > 100 µM
GI50 [42]: > 100 µM
TGI [42]: > 100 µM
GI50 [43]: > 100 µM
TGI [43]: > 100 µM
GI50 [44]: > 100 µM
TGI [44]: > 100 µM
GI50 [45]: > 100 µM
TGI [45]: > 100 µM
GI50 [46]: > 100 µM
TGI [46]: > 100 µM
GI50 [47]: > 100 µM
TGI [47]: > 100 µM
GI50 [48]: 38.4 µM
TGI [48]: > 100 µM
